Results on 19 compounds are retold here after PubChem BioAssay (NCI).

Some test systems named below: CAKI-1 renal; HOP-62 NSCLC; MDA-MB-435; MOLT-4 leukemia; NCI-H226 lung; RXF 393 renal; SF-295 CNS; SK-MEL-28 melanoma; SK-MEL-5 melanoma; SK-OV-3 ovarian.
Holding throughout (assay): inhibition of tumour cell growth, NCI panel, 48 h

SMILES strings stand for the structures. Where “and” joins values, the source holds several entries; their conditions need not be identical. Equal values may be shown once.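 96-well plates; 48 h exposure; 5 concentrations. Endpoints by linear interpolation between flanking doses. Not reached: highest tested concentration assigned. GI50: concentration for 50% inhibition of growth. At the TGI there is no net growth.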 Where a SMILES comes first, the peptide text is derived from it. [ ]: non-standard residue; d: D form. The star is where a group is joined. ξ: configuration not given here. NMeY = CN[C@@H](Cc1ccc(O)cc1)C(=O)O; Cbz = O=C(OCc1ccccc1)*; ξA = CC(N)C(=O)O

For the compound `COc1ccccc1C(=O)c1c(N2CCCCC2)c(=O)c1=O`, the TGI in the experiment on CAKI-1 renal, in the experiment with HOP-62 NSCLC, in the experiment with MDA-MB-435, in the experiment with MOLT-4 leukemia, in the experiment with NCI-H226 lung and in the experiment on RXF 393 renal was more than 100 µM throughout. Moreover, the TGI with SF-295 CNS, in the experiment with SK-MEL-28 melanoma, with SK-MEL-5 melanoma and with SK-OV-3 ovarian was more than 100 µM throughout.

As for `COc1ccc(C[C@@H](C(=O)NCC(N)=O)N(C)C(=O)[C@@H]2CCCN2C(=O)[C@H](CC(C)C)NC(=O)C(C)NC(=O)OCc2ccccc2)cc1` (stereo partly drawn) (Cbz-[ξA]LP[NMeY](Me)G-NH2), the TGI in the experiment with CAKI-1 renal, in the experiment on HOP-62 NSCLC, in the experiment on MDA-MB-435, in the experiment on MOLT-4 leukemia, with NCI-H226 lung and in the experiment with RXF 393 renal was more than 100 µM throughout. For the same compound, the TGI in the experiment with SF-295 CNS, with SK-MEL-28 melanoma, with SK-MEL-5 melanoma and in the experiment on SK-OV-3 ovarian was more than 100 µM throughout.

In the case of `CC(=O)N[C@@H](Cc1ccc(O)cn1)C(=O)NCc1ccc2c(c1)OCO2`, the TGI in the experiment with CAKI-1 renal, in the experiment with HOP-62 NSCLC, with MDA-MB-435, in the experiment with MOLT-4 leukemia, in the experiment with NCI-H226 lung and with RXF 393 renal was more than 100 µM in each case. Moreover, the TGI with SF-295 CNS, with SK-MEL-28 melanoma, with SK-MEL-5 melanoma and in the experiment on SK-OV-3 ovarian was more than 100 µM in each case.

Regarding `Cc1cnc(Cl)nc1C(C#N)c1nc2ccccc2n1C` (stereo not drawn), the TGI in the experiment with CAKI-1 renal, in the experiment on HOP-62 NSCLC, with MDA-MB-435, in the experiment on MOLT-4 leukemia, in the experiment with NCI-H226 lung and in the experiment on RXF 393 renal was more than 100 µM each time. Further, the TGI in the experiment on SF-295 CNS, in the experiment with SK-MEL-28 melanoma, in the experiment with SK-MEL-5 melanoma and in the experiment on SK-OV-3 ovarian was more than 100 µM each time.

With `CCCCCCCCCCCCCCCCP(=O)(O)OP(=O)(O)OCC1OC(n2ccc(N)nc2=O)C(O)C1O` (stereo not drawn), the GI50 with CAKI-1 renal is 75.8 µM and 11.9 µM; with HOP-62 NSCLC it was 31.5 µM and 4.41 µM; in the experiment with MDA-MB-435, > 100 µM and 14.6 µM; with NCI-H226 lung, 64.5 µM and 21.6 µM; in the experiment with RXF 393 renal it was 62.6 µM and 19.8 µM; in the experiment with SF-295 CNS it was 43 µM and 20.5 µM. Moreover, the GI50 was > 100 µM and 11.2 µM with SK-MEL-5 melanoma; > 100 µM and 11 µM with SK-OV-3 ovarian. Moreover, the TGI with CAKI-1 renal was more than 100 µM; with HOP-62 NSCLC, 97.3 µM and 44.6 µM; in the experiment with MDA-MB-435, more than 100 µM; in the experiment on MOLT-4 leukemia, > 100 µM and 22.7 µM; with NCI-H226 lung, > 100 µM and 78.9 µM; in the experiment on RXF 393 renal, > 100 µM and 41.1 µM. Besides, the TGI in the experiment on SF-295 CNS was > 100 µM and 56.5 µM; in the experiment with SK-MEL-28 melanoma, more than 100 µM; in the experiment with SK-MEL-5 melanoma it was > 100 µM and 34.3 µM; with SK-OV-3 ovarian it was > 100 µM and 72.6 µM.

`Cc1[nH]c(=O)nc(N/N=C/c2ccc(Cl)c(Cl)c2)c1C(=O)Nc1ccc(Cl)c(Cl)c1`: the TGI with CAKI-1 renal was 33.3 µM; with HOP-62 NSCLC it was 24.8 µM; with MDA-MB-435 it was more than 39.5 µM; in the experiment on MOLT-4 leukemia it was more than 100 µM; with NCI-H226 lung, more than 52.2 µM; in the experiment with RXF 393 renal, 32.7 µM. For the same compound, the TGI with SF-295 CNS is more than 30.7 µM; in the experiment on SK-MEL-28 melanoma it was 23.4 µM; with SK-MEL-5 melanoma, 22.8 µM; in the experiment on SK-OV-3 ovarian it was 26.9 µM.

As to `CC1(C)OC[C@@H](/C=C\CCO[Si](c2ccccc2)(c2ccccc2)C(C)(C)C)N1C(=O)c1ccccc1`, the TGI in the experiment on CAKI-1 renal is more than 100 µM; in the experiment on HOP-62 NSCLC, more than 100 µM; in the experiment with MDA-MB-435, more than 100 µM; in the experiment on MOLT-4 leukemia, 47.1 µM; in the experiment with NCI-H226 lung, 25.5 µM; with RXF 393 renal, 27.9 µM. Moreover, the TGI is more than 100 µM with SF-295 CNS, more than 100 µM in the experiment with SK-MEL-28 melanoma, 12 µM with SK-MEL-5 melanoma and more than 100 µM in the experiment with SK-OV-3 ovarian.

On to `CCCCCCCCCCCCOC1C(COCCN2CCCC2)OC2OC(C)(C)OC21` (stereo not drawn), for which the TGI with CAKI-1 renal is 3.04 µM; in the experiment on HOP-62 NSCLC, 3.2 µM; with MDA-MB-435, 3.14 µM; in the experiment with MOLT-4 leukemia, 10.4 µM; with NCI-H226 lung, 7.62 µM; in the experiment on RXF 393 renal, 3.17 µM. Besides, the TGI worked out at 3.28 µM in the experiment on SF-295 CNS, 3.12 µM in the experiment with SK-MEL-28 melanoma, 2.95 µM in the experiment with SK-MEL-5 melanoma and 3.33 µM in the experiment on SK-OV-3 ovarian.

In the case of `O=C1CCSSCCC(=O)Nc2ccccc2N1`, the TGI in the experiment with CAKI-1 renal, in the experiment on HOP-62 NSCLC, in the experiment on MDA-MB-435, with MOLT-4 leukemia, with NCI-H226 lung and in the experiment with RXF 393 renal was more than 100 µM in each case. The TGI with SF-295 CNS, in the experiment with SK-MEL-28 melanoma, in the experiment with SK-MEL-5 melanoma and with SK-OV-3 ovarian was more than 100 µM in each case.

For `O=c1oc2ccccc2cc1-c1nc2ccc([N+](=O)[O-])cc2o1`, the TGI with CAKI-1 renal, in the experiment on HOP-62 NSCLC, with MDA-MB-435, with MOLT-4 leukemia, with NCI-H226 lung and in the experiment with RXF 393 renal was more than 100 µM throughout. Besides, the TGI with SF-295 CNS, in the experiment on SK-MEL-28 melanoma, in the experiment with SK-MEL-5 melanoma and in the experiment on SK-OV-3 ovarian was more than 100 µM each time.

Regarding `Cc1cs/c(=N\C(P(=O)(O)O)P(=O)(O)O)n1C`, the TGI with CAKI-1 renal, in the experiment on HOP-62 NSCLC, with MDA-MB-435, in the experiment with MOLT-4 leukemia, with NCI-H226 lung and in the experiment on RXF 393 renal was more than 100 µM each time. Further, the TGI in the experiment on SF-295 CNS, in the experiment with SK-MEL-28 melanoma, with SK-MEL-5 melanoma and in the experiment with SK-OV-3 ovarian was more than 100 µM throughout.

Turning to `CCOC(=O)c1cc(-c2ccc(OC)c(OC)c2)c[nH]1`, the TGI with CAKI-1 renal, in the experiment on HOP-62 NSCLC, with MDA-MB-435, in the experiment with MOLT-4 leukemia, in the experiment on NCI-H226 lung and in the experiment with RXF 393 renal was more than 10 µM throughout. Moreover, the TGI in the experiment with SF-295 CNS, in the experiment with SK-MEL-28 melanoma, in the experiment on SK-MEL-5 melanoma and in the experiment with SK-OV-3 ovarian was more than 10 µM throughout.

Consider `COC(=O)Cc1c(C2=Nc3ccccc3C2(O)CC(=O)OC)[nH]c2ccccc12` (stereo not drawn), for which the TGI with CAKI-1 renal was 71 µM; with HOP-62 NSCLC, more than 100 µM; in the experiment on MDA-MB-435, more than 100 µM; in the experiment on MOLT-4 leukemia, 71.2 µM; with NCI-H226 lung, more than 100 µM; in the experiment on RXF 393 renal it was more than 100 µM. Besides, the TGI with SF-295 CNS, in the experiment on SK-MEL-28 melanoma, in the experiment on SK-MEL-5 melanoma and in the experiment with SK-OV-3 ovarian was more than 100 µM throughout.

For `c1ccc2c(c1)CC1c3[nH]c4ccccc4c3CCN21` (stereo not drawn), the TGI in the experiment with CAKI-1 renal, in the experiment with HOP-62 NSCLC, in the experiment with MDA-MB-435, with MOLT-4 leukemia, with NCI-H226 lung and in the experiment with RXF 393 renal was more than 10 µM each time. Besides, the TGI in the experiment with SF-295 CNS, in the experiment on SK-MEL-28 melanoma, with SK-MEL-5 melanoma and in the experiment on SK-OV-3 ovarian was more than 10 µM each time.

With `CC1=NN(c2ccc(C)cc2)C2(C1)SCC(=O)N2c1nc2ccccc2s1` (stereo not drawn), the TGI in the experiment with CAKI-1 renal is more than 100 µM; in the experiment with HOP-62 NSCLC it was more than 100 µM; in the experiment with MDA-MB-435, more than 100 µM; in the experiment on MOLT-4 leukemia, 46.1 µM; with NCI-H226 lung, 47 µM; in the experiment on RXF 393 renal, 54.8 µM. The TGI in the experiment with SF-295 CNS was more than 100 µM; in the experiment with SK-MEL-28 melanoma, more than 100 µM; in the experiment on SK-MEL-5 melanoma, 24.2 µM; with SK-OV-3 ovarian, more than 100 µM.

As for `COc1cc(C(=O)Nc2nnc(S(N)(=O)=O)s2)cc(OC)c1OC`, the TGI in the experiment on CAKI-1 renal, in the experiment on HOP-62 NSCLC, in the experiment on MDA-MB-435, in the experiment with MOLT-4 leukemia, with NCI-H226 lung and in the experiment on RXF 393 renal was more than 100 µM throughout. In addition, the TGI in the experiment on SF-295 CNS, in the experiment with SK-MEL-28 melanoma, in the experiment on SK-MEL-5 melanoma and with SK-OV-3 ovarian was more than 100 µM in each case.

With `CC(C)=CC(=O)O[C@@H]1CC(C)(C)CC2C3=CCC4[C@]56CC[C@](O)(OC5)C(C)(C)C6CC[C@@]4(C)C3(C)CC[C@]21C(=O)O` (stereo partly drawn), the TGI in the experiment on CAKI-1 renal, with HOP-62 NSCLC, in the experiment on MDA-MB-435, in the experiment with MOLT-4 leukemia, in the experiment with NCI-H226 lung and in the experiment with RXF 393 renal was more than 100 µM throughout. The TGI in the experiment with SF-295 CNS, with SK-MEL-28 melanoma, with SK-MEL-5 melanoma and in the experiment with SK-OV-3 ovarian was more than 100 µM in each case.

As for `CCCCn1cc(C(=O)O)c(=O)c2c3sccc3ccc21`, the TGI in the experiment with CAKI-1 renal, in the experiment with HOP-62 NSCLC, in the experiment on MDA-MB-435, in the experiment with MOLT-4 leukemia, with NCI-H226 lung and in the experiment on RXF 393 renal was more than 100 µM in each case. The TGI in the experiment on SF-295 CNS, in the experiment with SK-MEL-28 melanoma, in the experiment on SK-MEL-5 melanoma and in the experiment on SK-OV-3 ovarian was more than 100 µM each time.

Consider `CNc1ccc2nc(-c3ccc(OC(=O)N(C)C)cc3)cn2c1`, for which the TGI in the experiment on CAKI-1 renal was 44.7 µM; in the experiment with HOP-62 NSCLC, 32.9 µM; in the experiment on MDA-MB-435 it was 30.7 µM; in the experiment with MOLT-4 leukemia, 43 µM; with NCI-H226 lung, 37.4 µM; with RXF 393 renal, 26.1 µM. The TGI in the experiment on SF-295 CNS was 31.5 µM; in the experiment on SK-MEL-28 melanoma it was more than 100 µM; in the experiment on SK-MEL-5 melanoma, 57.1 µM; with SK-OV-3 ovarian, 33 µM.
